The source of these data is patent US20240307220A1, “Combination Therapy to Treat Temperature Sensitive Mutant Tumors” (H. LEE MOFFITT CANCER CENTER AND RESEARCH INSTITUTE INC., priority 2021, published 2024).

The test system of series [1] is H1299 cells expressing A138V. The series can be described thus: ChIP of p53 DNA binding in H1299 expressing A138V shifted to 32° C. with CHX or 17-AAG. More on the design: rescue of p53 DNA binding at 32° C. (ChIP): dose or concentration left out as unconfirmed. The series is classed as cell-based, human. The method, then:
FIGS. 4A to 4E show molecular chaperones mediate refolding of stockpiled ts p53 at permissive temperature. […] P53 binding to p21 promoter was determined by ChIP. […] P53 DNA binding was determined by ChIP. FIG. 4C is a diagram of cell-free luciferase fragment complementation assay that detects the DNA binding of p53-Cluc fusion protein. ZF-Nluc and p53-Cluc binding to DNA containing ZF and p53 sites juxtapose Nluc and Cluc domains to restore luciferase activity. […] The heat-treated p53-Cluc proteins were mixed with ZF-Nluc, DNA, ATP, E. coli extract containing 5 chaperones and incubated for 3 hrs at 23° C. P53 DNA binding was detected by measuring luciferase activity. The results are average of 3 experiments (mean±SD). **p<0.01.
Chromatin immunoprecipitation (ChIP). ChIP assay was performed using standard procedure. Crosslinked p53-DNA complexes were immunoprecipitated with DO-1 antibody. Samples were subjected to SYBR Green real-time PCR analysis using forward and reverse primers for the p53 binding sites in the p21 promoter ([…] (SEQ ID NO:7) and […] (SEQ ID NO:8)), and PUMA promoter ([…] (SEQ ID NO:9) and […] (SEQ ID NO:10)).

Series [2] in a line: Pharmacological induction of hypothermia by CHA in nude mice. The series is classed as in vivo. The method, then: FIGS. 6A to 6D show hypothermia inhibits the growth of tumors expressing ts p53. […] One group of mice was treated with 32° C. hypothermia in 24 hr×6 format. Control animals (37° C.) were not treated. […] Tumor size (mean±SD) was plotted over time.
Animal experiment. Animal experiments were reviewed and approved by the University of South Florida IACUC. Athymic female nude mice (6-week old, Athymic Nude-Foxn1nu, Envigo) were injected subcutaneously with 0.1 ml 1:1 slurry of Matrigel (VWR 47743-715) and 1×10^7 cells in PBS at each site. The inoculated mice were housed in a cabinet set to 28° C. (ARIA BIO-C36 ventilated cabinet, TECNIPLAST) to ensure that tumors develop at ˜37° C. Each mouse received injections at 2 sites, tumors formed at >80% of sites injected with GA10 cells. N^6-cyclohexyladenosine (CHA, Sigma C9901) was dissolved at 20 mg/ml in 25% (2-Hydroxypropyl)-β-cyclodextrin (w/v, Sigma H107) and heated at 65° C. for 10 min to ensure dissolution. Camptothecin (CPT, Santa Cruz Biotechnology sc-200871B) was freshly dissolved in 1 N NaOH, diluted to ˜0.5 mg/ml with saline, and adjusted to pH10 using HCl. To induce hypothermia, 0.2 ml saline+10% glucose containing CHA and CPT was administered by intra peritoneal injection to provide a CHA dosage of 10 mg/kg body weight and CPT (when indicated) dosage of 1.5 mg/kg body weight. The mice were kept in the 28° C. cabinet and monitored using infrared thermal imaging camera (FLIR ONE Pro, FLIR® Systems, Inc.) to verify that body temperature was maintained at ˜32° C. A second injection of CHA (10 mg/kg) in 0.4 ml saline+10% glucose was given after 10 hours to maintain hypothermia for ˜24 hours. A third injection of CHA (10 mg/kg) in 0.4 ml saline+10% glucose was given after 10 hours to maintain hypothermia for ˜32 hours. After regaining normal body temperature, the mice were kept for 2-4 days in the 28° C. cabinet to allow weight recovery (˜10% weight loss occurred during hypothermia due to loss of mobility and food intake). The treatment was repeated 4-5 times (24 hr×6 or 32 hr×5 format). In each subsequent round CHA dosage was increased by 25% to compensate for the gradual loss of sensitivity.
Pharmacological induction of hypothermia. To test the effect of hypothermia on tumors with ts p53, the adenosine A1 receptor (A1AR) agonist CHA ([…]) was used to lower mouse body temperature to 32° C. for 24-48 hours. […] Intraperitoneal injection of CHA caused body temperature to decrease to ˜3° C. above the environment in ˜10 minutes, consistent with the induction of hibernation-like response in rats and mice by A1AR agonists (Tupone D, et al. J Neurosci 2013 33:14512-25; Futatsuki T, et al. Sci Rep 2018 8:2717). […] This was achieved by keeping the CHA-treated mice in a 28° C. environment (FIG. 6A). […]

The next series relates to UC3 bladder cancer cells. The series can be described thus: UC3 colony formation after 2 hrs drug treatment, washout and 32° C. or 37° C. incubation. The series is classed as cell-based. Particulars: 2 hrs drug at 37° C., washout, 32° C. vs 37° C. 24 hrs, then 7 days at 37° C. The method, then:
FIGS. 17A and 17B show hypothermia treatment given after chemotherapy enhances drug response in bladder cancer. […] The washed cells were incubated at 32° C. or 37° C. for 24 hrs, followed by 7 days at 37° C. and crystal violet staining for colony formation.
Standard bladder intravesical chemotherapy involves 1-2 hr irrigation with drugs at 37° C. or 42° C. The effect of treating cells with 32° C. hypothermia after chemotherapy was tested to avoid interference with drug uptake. TS mutant p53 activation peaks 6-8 hrs after shift to 32° C., which should cooperate with chemotherapy-induced DNA damage to induce cell death. […] Saline irrigation of up to 24 hrs is routinely performed after transurethral resection of bladder tumor (TURBT) procedure to prevent clotting. Therefore, irrigation with cooled saline after intravesical chemotherapy is expected to be well-tolerated and safe.

[3] abbreviates: nude mice, intraperitoneal injection.

For the molecule `C=CCNC1=C2C[C@@H](C)C[C@H](OC)[C@H](O)[C@@H](C)/C=C(\C)[C@H](OC(N)=O)[C@@H](OC)/C=C\C=C(/C)C(=O)NC(=CC1=O)C2=O` [17-AAG], in series [1] (50 μM 17-AAG), the “p53 activation at 32° C. (ChIP DNA binding)” value is reported as “blocked p53 activation”. For `OC[C@H]1O[C@@H](n2cnc3c(NC4CCCCC4)ncnc32)[C@H](O)[C@@H]1O` [CHA, N^6-cyclohexyladenosine], the “weight loss during hypothermia” value in series [2] (CHA 10 mg/kg injections, due to loss of mobility and food intake) is reported as about 10%. The “duration body temperature maintained at 32° C.” value in series [2] (multiple injections of CHA, 28° C. environment) lay in the range of 24 to 32 h. Besides, in series [2] (setting [3]), the “body temperature after CHA injection” value is about 3 °C above the environment and the “time for body temperature decrease” value is about 10 min.

For `COc1cccc2c1C(=O)c1c(O)c3c(c(O)c1C2=O)C[C@@](O)(C(=O)CO)C[C@@H]3O[C@H]1C[C@H](N)[C@H](O)[C@H](C)O1` [Doxorubicin], in the series with UC3 bladder cancer cells, the “effect of 32° C. for 24 hrs after drug on growth inhibition (colony formation)” value is “modestly increased”. On the same count and under the same terms, with `Nc1ccn([C@@H]2O[C@H](CO)[C@@H](O)C2(F)F)c(=O)n1` [Gemcitabine] the entry was “modestly increased”. `C[C@@H]1C[C@@H]([C@H](O)CC2CC(=O)NC(=O)C2)C(=O)[C@@H](C)C1` [cycloheximide]: in series [1] (cycloheximide (CHX)), the “rescue of p53 DNA binding at 32° C. (ChIP)” value is “did not prevent the rescue of DNA binding”.
